Assay results: ChEMBL document CHEMBL2429832, “N-substituted 8-aminopentacyclo[5.4.0.0(2,6).0(3,10).0(5,9)]undecanes as σ receptor ligands with potential neuroprotective effects” (Bioorg Med Chem, 2013)

How the values were obtained:
[1] = target: GABA-A receptor; agonist GABA site (Homo sapiens) (UniProt P14867+P47870+P28472+P48169+P34903+P18505+P47869+P31644+Q16445); test: Inhibition of GABAA receptor (unknown origin) at 10 uM by PDSP assay relative to control; assay type: protein-complex assay
Histamine H2 receptor = Histamine H2 receptor (Homo sapiens, UniProt P25021); test: Inhibition of histamine H2 receptor (unknown origin) at 10 uM by PDSP assay relative to control
Sequence of Histamine H2 receptor (P25021 whole entry): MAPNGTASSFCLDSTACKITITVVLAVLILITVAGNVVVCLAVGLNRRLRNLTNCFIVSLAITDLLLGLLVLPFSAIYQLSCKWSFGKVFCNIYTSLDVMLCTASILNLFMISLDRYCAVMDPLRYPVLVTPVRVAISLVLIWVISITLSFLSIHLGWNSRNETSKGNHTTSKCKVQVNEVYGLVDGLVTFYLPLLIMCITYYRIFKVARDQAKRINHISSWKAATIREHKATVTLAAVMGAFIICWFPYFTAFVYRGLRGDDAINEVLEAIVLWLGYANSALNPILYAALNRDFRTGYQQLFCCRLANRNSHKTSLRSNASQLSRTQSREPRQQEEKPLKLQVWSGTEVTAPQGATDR

Histamine H1 receptor = Histamine H1 receptor (Homo sapiens, UniProt P35367); test: Inhibition of histamine H1 receptor (unknown origin) at 10 uM by PDSP assay relative to control
Sequence of Histamine H1 receptor (P35367 whole entry): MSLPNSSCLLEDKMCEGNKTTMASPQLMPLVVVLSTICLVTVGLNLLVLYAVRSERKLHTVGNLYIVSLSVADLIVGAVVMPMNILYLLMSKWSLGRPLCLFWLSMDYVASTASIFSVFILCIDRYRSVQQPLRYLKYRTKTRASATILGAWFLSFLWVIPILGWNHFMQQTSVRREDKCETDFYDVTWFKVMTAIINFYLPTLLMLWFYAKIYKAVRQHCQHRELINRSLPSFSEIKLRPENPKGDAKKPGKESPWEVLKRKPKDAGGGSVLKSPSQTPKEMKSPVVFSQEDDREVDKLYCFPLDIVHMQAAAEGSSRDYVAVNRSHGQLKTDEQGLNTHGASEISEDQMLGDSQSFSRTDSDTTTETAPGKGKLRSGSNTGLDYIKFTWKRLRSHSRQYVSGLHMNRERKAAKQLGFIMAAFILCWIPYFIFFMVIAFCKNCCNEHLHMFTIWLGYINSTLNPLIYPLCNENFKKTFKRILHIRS

[2] = target: T1, Alpha-2A adrenergic receptor (Homo sapiens) (UniProt P08913); test: Inhibition of adrenergic alpha2A receptor (unknown origin) at 10 uM by PDSP assay relative to control
T1 sequence (whole entry): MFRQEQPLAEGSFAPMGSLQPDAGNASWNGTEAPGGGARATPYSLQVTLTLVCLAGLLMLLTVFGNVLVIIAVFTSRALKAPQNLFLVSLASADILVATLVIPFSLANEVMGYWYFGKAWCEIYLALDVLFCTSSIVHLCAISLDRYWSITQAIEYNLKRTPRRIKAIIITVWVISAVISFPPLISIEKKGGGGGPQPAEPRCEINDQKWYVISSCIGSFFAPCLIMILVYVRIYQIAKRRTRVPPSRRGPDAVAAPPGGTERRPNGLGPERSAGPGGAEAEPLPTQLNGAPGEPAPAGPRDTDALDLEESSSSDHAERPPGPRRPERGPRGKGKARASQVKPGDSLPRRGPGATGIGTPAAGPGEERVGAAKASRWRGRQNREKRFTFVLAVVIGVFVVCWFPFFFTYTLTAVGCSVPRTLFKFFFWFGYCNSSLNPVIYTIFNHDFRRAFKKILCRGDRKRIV

[3] = target: T2, Alpha-2C adrenergic receptor (Homo sapiens, UniProt P18825); test: Inhibition of adrenergic alpha2C receptor (unknown origin) by PDSP assay
T2 sequence (P18825 whole entry): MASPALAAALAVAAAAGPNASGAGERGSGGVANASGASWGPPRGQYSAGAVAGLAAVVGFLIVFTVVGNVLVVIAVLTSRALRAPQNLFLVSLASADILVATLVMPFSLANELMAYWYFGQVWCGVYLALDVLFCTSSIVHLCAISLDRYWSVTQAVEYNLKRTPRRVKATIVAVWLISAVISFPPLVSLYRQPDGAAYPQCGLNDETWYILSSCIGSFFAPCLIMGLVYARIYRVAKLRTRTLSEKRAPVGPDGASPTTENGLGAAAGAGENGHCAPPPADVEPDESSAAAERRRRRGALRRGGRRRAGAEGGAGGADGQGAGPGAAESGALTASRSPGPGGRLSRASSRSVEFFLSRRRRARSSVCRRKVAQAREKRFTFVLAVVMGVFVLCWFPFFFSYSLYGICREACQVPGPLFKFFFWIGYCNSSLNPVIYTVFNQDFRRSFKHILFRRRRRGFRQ

[4] = target: T3, Muscarinic acetylcholine receptor M4 (Homo sapiens, UniProt P08173); test: Inhibition of muscarinic M4 receptor (unknown origin) by PDSP assay
T3 sequence (P08173 whole entry): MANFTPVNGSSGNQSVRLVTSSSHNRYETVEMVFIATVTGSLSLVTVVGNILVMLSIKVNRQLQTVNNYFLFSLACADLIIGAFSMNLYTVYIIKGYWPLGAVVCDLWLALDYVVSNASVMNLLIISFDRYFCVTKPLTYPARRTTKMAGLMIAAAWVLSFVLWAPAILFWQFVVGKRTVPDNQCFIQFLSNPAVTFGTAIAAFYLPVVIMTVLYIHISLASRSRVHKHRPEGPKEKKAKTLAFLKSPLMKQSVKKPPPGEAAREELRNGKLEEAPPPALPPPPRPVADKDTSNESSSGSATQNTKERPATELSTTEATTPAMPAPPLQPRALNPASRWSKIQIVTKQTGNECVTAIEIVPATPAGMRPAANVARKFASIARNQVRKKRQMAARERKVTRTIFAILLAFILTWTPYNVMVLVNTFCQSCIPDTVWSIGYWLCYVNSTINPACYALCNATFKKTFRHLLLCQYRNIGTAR

[5] = target: 5-hydroxytryptamine receptor 2A (Homo sapiens, UniProt P28223); test: Inhibition of 5-HT2A receptor (unknown origin) at 10 uM by PDSP assay relative to control
Sequence of 5-hydroxytryptamine receptor 2A (P28223 whole entry): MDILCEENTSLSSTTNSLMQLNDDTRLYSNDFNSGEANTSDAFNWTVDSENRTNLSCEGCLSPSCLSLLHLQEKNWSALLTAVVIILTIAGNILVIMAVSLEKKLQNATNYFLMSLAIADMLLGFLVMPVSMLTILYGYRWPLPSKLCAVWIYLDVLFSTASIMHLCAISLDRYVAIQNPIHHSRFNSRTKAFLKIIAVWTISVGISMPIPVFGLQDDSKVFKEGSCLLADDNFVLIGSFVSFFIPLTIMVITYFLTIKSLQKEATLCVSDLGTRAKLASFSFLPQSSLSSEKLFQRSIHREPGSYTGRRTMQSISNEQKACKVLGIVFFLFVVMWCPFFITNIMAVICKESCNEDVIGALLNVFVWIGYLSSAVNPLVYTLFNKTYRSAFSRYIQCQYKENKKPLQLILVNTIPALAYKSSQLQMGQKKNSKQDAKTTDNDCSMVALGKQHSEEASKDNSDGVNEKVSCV

D(2) dopamine receptor = D(2) dopamine receptor (Homo sapiens, UniProt P14416); test: Inhibition of dopamine D2 receptor (unknown origin) at 10 uM by PDSP assay relative to control
Sequence of D(2) dopamine receptor (P14416 whole entry): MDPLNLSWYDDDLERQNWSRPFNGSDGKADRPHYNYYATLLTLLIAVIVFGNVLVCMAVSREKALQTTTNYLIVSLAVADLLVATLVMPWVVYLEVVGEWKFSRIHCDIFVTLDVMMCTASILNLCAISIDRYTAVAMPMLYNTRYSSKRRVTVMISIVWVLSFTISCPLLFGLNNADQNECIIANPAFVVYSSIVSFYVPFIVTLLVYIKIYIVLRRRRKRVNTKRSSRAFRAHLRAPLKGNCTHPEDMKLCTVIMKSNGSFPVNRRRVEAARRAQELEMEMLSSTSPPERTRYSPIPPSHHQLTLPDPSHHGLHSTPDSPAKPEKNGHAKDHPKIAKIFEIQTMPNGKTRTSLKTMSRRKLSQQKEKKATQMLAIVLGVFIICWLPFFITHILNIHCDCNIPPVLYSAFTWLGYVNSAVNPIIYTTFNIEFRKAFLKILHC

[6] = target: Sodium-dependent dopamine transporter (Homo sapiens, UniProt Q01959); test: Displacement of [3H]-WIN-35,428 from human DAT expressed in HEK cell membranes at 10 uM relative to control; conditions: HEK293
Sequence of Sodium-dependent dopamine transporter (Q01959 whole entry): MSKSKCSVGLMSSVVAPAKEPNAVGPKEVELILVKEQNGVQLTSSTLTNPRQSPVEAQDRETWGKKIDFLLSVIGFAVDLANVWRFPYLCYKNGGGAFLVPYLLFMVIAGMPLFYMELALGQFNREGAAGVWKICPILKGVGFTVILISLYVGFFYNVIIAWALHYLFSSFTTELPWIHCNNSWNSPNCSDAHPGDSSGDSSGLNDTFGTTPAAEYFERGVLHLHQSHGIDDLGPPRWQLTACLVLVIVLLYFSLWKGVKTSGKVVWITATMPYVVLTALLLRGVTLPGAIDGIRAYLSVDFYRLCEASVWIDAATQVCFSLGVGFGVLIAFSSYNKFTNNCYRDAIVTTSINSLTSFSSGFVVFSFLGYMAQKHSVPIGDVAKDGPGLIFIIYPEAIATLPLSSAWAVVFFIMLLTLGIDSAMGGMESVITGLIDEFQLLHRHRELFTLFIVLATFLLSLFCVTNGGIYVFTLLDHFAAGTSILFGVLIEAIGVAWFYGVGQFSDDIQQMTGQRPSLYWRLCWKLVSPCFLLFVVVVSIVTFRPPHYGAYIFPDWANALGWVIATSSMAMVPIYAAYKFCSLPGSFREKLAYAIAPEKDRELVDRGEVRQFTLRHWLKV

[7] = target: T4, Muscarinic acetylcholine receptor M1 (Homo sapiens) (UniProt P11229); test: Inhibition of muscarinic M1 receptor (unknown origin) at 10 uM by PDSP assay relative to control
T4 sequence (whole entry): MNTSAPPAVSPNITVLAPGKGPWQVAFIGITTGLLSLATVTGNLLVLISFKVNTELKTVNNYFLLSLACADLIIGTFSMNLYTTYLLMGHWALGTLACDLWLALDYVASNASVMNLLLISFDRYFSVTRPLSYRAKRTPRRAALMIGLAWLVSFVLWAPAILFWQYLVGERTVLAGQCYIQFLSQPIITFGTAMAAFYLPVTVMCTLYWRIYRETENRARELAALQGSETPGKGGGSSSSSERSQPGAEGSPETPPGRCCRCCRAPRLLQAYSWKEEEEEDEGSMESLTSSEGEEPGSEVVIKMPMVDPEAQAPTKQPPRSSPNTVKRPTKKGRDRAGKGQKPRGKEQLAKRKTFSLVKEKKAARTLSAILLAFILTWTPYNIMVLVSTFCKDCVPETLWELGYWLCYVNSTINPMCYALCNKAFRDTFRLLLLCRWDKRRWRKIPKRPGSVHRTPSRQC

- inhibition [1]: < 50%
- inhibition (Histamine H2 receptor): < 50%
- inhibition (Histamine H1 receptor): < 50%
- inhibition [2]: < 50%
- Ki [3]: 1510 nM
- Ki [4]: 707 nM
- inhibition [5]: < 50%
- inhibition (D(2) dopamine receptor): < 50%
- inhibition [6]: < 50%
- inhibition [7]: < 50%
SMILES: C1CCC(CN[C@H]2C3C4CC5C6C4CC3C6C52)CC1 (stereo not given in full)
